“And” between values parts separate entries of the source, which are not always exact repeats. Equal values may be shown once. Inconclusive results and toxic doses are left out.
Test system: BDF1 mice, Lewis lung carcinoma iv, survival T/C
Assay: NCI In Vivo Anticancer Drug Screen. Data for tumor model Lewis Lung Carcinoma (intravenous) in B6D2F1 (BDF1) mice
Settings: endpoint: median survival time, higher = longer survival
Description: The antitumor activity of compounds was measured in mice bearing transplantable tumors. Survival or tumor size were measured and the results are expressed as the measurement made in the treated group (T) divided by the measurement made in the vehicle treated control group (C). The tumor model used in this assay is Lewis Lung Carcinoma (intravenous) in B6D2F1 (BDF1) mice

[1] = dose: 12.5 mg/kg/injection, schedule: Q01DX009 (ip), vehicle: saline
[2] = dose: 25.0 mg/kg/injection, schedule: Q01DX009 (ip), vehicle: saline
[3] = dose: 50.0 mg/kg/injection, schedule: Q01DX009 (ip), vehicle: saline
[4] = dose: 100.0 mg/kg/injection, schedule: Q01DX009 (ip), vehicle: saline

CC1CCC(NC(=O)N(CCCl)N=O)CC1 (centres undefined)
T/C (dose: 5.0 mg/kg/injection, schedule: Q01DX001 (ip), vehicle: saline): 100 % of control
T/C (dose: 10.0 mg/kg/injection, schedule: Q01DX001 (ip), vehicle: saline): 100 % of control
T/C (dose: 24.0 mg/kg/injection, schedule: Q01DX001 (ip), vehicle: saline with Tween-80): 156 % of control
T/C (dose: 24.0 mg/kg/injection, schedule: Q06DX002 (ip), vehicle: saline with Tween-80): 176 % of control and 270 % of control
T/C (dose: 30.0 mg/kg/injection, schedule: Q01DX001 (ip), vehicle: saline): 94 % of control and 103 % of control
T/C (dose: 30.0 mg/kg/injection, schedule: Q06DX002 (ip), vehicle: saline with Tween-80): 220 % of control and 260 % of control
T/C (dose: 36.0 mg/kg/injection, schedule: Q01DX001 (ip), vehicle: saline with Tween-80): 162 % of control and 185 % of control and 205 % of control
T/C (dose: 40.0 mg/kg/injection, schedule: Q01DX001 (ip), vehicle: saline): 103 % of control

CC(C)C(=O)OCC1OC(n2cnc3c(=S)nc(N)[nH]c32)C(OC(=O)C(C)C)C1OC(=O)C(C)C (centres undefined)
T/C (dose: 3.12 mg/kg/injection, schedule: Q01DX009 (ip), vehicle: Klucel (hydroxypropylcellulose) (HPC)): 97 % of control
T/C (dose: 6.25 mg/kg/injection, schedule: Q01DX009 (ip), vehicle: Klucel (hydroxypropylcellulose) (HPC)): 90 % of control

C1OC1CO[C@@H]1CO[C@H]2[C@@H]1OC[C@H]2OCC1CO1 (some centres undefined)
T/C [1]: 113 % of control
T/C [2]: 100 % of control
T/C [3]: 123 % of control
T/C [4]: 177 % of control

CCC1(O)CC2CN(CCc3c([nH]c4ccccc34)C(C(=O)OC)(c3cc4c(cc3OC)N(C)C3C(O)(C(=O)NCCSSCCNC(=O)C5(O)C(O)C6(CC)C=CCN7CCC8(c9cc(C%10(C(=O)OC)CC%11CN(CCc%12c%10[nH]c%10ccccc%12%10)CC(O)(CC)C%11)c(OC)cc9N(C)C58)C76)C(O)C5(CC)C=CCN6CCC43C65)C2)C1 (centres undefined)
T/C (dose: 0.39 mg/kg/injection, schedule: Q01DX009 (ip), vehicle: saline): 93 % of control
T/C (dose: 0.65 mg/kg/injection, schedule: Q01DX009 (ip), vehicle: saline): 93 % of control

CCOC(=O)C(N)C[S][Sn]([CH3])([CH3])[Cl] (centres undefined)
T/C (dose: 6.25 mg/kg/injection, schedule: Q01DX009 (ip), vehicle: saline): 100 % of control
T/C [1]: 102 % of control
T/C [2]: 95 % of control

CC1=C(/C=C/C(C)=C/C=C/C(C)=C/C(=O)O)C(C)(C)CCC1
T/C (dose: 4.0 mg/kg/injection, schedule: Q01DX005 (ip), vehicle: saline with Tween-80): 92 % of control
T/C (dose: 8.0 mg/kg/injection, schedule: Q01DX005 (ip), vehicle: saline with Tween-80): 95 % of control
T/C (dose: 16.0 mg/kg/injection, schedule: Q01DX005 (ip), vehicle: saline with Tween-80): 102 % of control
T/C (dose: 32.0 mg/kg/injection, schedule: Q01DX005 (ip), vehicle: saline with Tween-80): 91 % of control
T/C (dose: 128.0 mg/kg/injection, schedule: Q01DX005 (ip), vehicle: saline with Tween-80): 91 % of control

CN1CCN(c2ccc3nc(-c4ccc5nc(-c6ccc(O)cc6)[nH]c5c4)[nH]c3c2)CC1
T/C (dose: 6.0 mg/kg/injection, schedule: Q01DX009 (ip), vehicle: saline): 95 % of control
T/C (dose: 12.0 mg/kg/injection, schedule: Q01DX009 (ip), vehicle: saline): 98 % of control
T/C [2]: 120 % of control
T/C [3]: 102 % of control
T/C [4]: 100 % of control

Cc1cc(NCCCCCCCNc2cc(C)nc3cc(N)ccc23)c2ccc(N)cc2n1
T/C (dose: 0.78 mg/kg/injection, schedule: Q01DX009 (ip), vehicle: saline with Tween-80): 100 % of control
T/C (dose: 1.56 mg/kg/injection, schedule: Q01DX009 (ip), vehicle: saline with Tween-80): 102 % of control
T/C (dose: 3.12 mg/kg/injection, schedule: Q01DX009 (ip), vehicle: saline with Tween-80): 102 % of control
T/C (dose: 6.25 mg/kg/injection, schedule: Q01DX009 (ip), vehicle: saline with Tween-80): 110 % of control
T/C (dose: 12.5 mg/kg/injection, schedule: Q01DX009 (ip), vehicle: saline with Tween-80): 96 % of control

Nc1ncnc2c1ncn2C1OC(CO)C(O)C1O (centres undefined)
T/C (dose: 32.0 mg/kg/injection, schedule: Q01DX009 (ip), vehicle: Klucel (hydroxypropylcellulose) (HPC)): 101 % of control
T/C (dose: 64.0 mg/kg/injection, schedule: Q01DX009 (ip), vehicle: Klucel (hydroxypropylcellulose) (HPC)): 108 % of control
T/C (dose: 128.0 mg/kg/injection, schedule: Q01DX009 (ip), vehicle: Klucel (hydroxypropylcellulose) (HPC)): 97 % of control
T/C (dose: 256.0 mg/kg/injection, schedule: Q01DX009 (ip), vehicle: Klucel (hydroxypropylcellulose) (HPC)): 106 % of control
T/C (dose: 512.0 mg/kg/injection, schedule: Q01DX009 (ip), vehicle: Klucel (hydroxypropylcellulose) (HPC)): 87 % of control

Source: PubChem BioAssay AID274 (DTP/NCI, 2004)
